Assay results as given in US4605661A, “Aromastase inhibiting α,α-diarylimidazole-4(5)-propionitriles, α,α-diarylimidazole-4(5)-propionamides, and 4(5)-(2,2-diarylethyl)imidazoles” (Eli Lilly and Company, priority 1984, dated 1986).
Where a name gives a salt, the structure may show the parent alone. Read-outs that look alike come from different tables or passages of the source.

Experiments:
[1] = biological target: T1, aromatase (Rattus norvegicus, UniProt P22443); assay: Aromatase inhibition in the rat ovarian microsome assay; type: biochemical
T1 construct: ovarian microsomes are obtained from rats treated with pregnant mares serum gonadotropin; from tissue; host or cells: ovarian microsomes from rats treated with pregnant mares serum gonadotropin
T1 sequence (P22443 1-508): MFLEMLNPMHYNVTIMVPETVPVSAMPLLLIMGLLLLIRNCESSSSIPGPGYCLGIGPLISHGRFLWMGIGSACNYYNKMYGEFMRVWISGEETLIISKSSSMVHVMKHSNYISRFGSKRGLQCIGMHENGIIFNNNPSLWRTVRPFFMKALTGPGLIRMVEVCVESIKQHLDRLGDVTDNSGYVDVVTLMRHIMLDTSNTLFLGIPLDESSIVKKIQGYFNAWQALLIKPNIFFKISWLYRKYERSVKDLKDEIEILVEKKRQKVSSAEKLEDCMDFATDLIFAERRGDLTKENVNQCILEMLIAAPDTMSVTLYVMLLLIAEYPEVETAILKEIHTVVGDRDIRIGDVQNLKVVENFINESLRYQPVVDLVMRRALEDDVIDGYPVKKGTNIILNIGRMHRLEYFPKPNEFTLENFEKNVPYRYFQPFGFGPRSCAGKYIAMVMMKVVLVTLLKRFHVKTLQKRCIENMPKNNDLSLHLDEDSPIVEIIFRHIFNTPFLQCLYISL
Protocol: In this test system, ovarian microsomes are obtained from rats treated with pregnant mares serum gonadotropin. Test compounds are added to reaction vials containing 0.1 μM 4-androstene-3,17-dione, 100,000 dpm 1,2[^3 H]-androstenedione, the microsomes and a NADPH generating system. The concentrations of the inhibitors tested ranged between 0.005 and 10 μM.

[2] = system: aromatization; assay: Estrogen synthesis inhibition in rats: ovarian steroid concentrations; type: in vivo, rat (immature female Wistar); settings: ovary, 7 days
Protocol: (§1) Immature female Wistar rats (45-55 grams) were divided into control and test groups of 4-8 animals each. Test compounds were administered for seven days as a component of the diet. Control animals received diet without the test compound. Beginning on the fourth day of the test, all animals treated with the test compound and one half of the control animals were given a subcutaneous injection of 1.0 mg of testosterone propionate in corn oil. The remaining control animals received only an equivalent volume of corn oil. On the seventh day of the test, rats treated with testosterone propionate were injected subcutaneously with 100 μCi of [^3 H]-testosterone in 50 μl of 3:1 (v/v) saline-ethanol.
Ovaries from rats treated with [^3 H]-testosterone were excised, cleaned of extraneous tissue, and homogenized in 2.5 ml of a 1.0 mM potassium phosphate buffer containing 3.0 mM MgCl2.6H2 O, 320 mM sucrose, and 0.25% Triton X-100 (polyethylene glycol p-isooctyl phenyl ether, Rohm and Hass) at pH 6.5. The ovarian steroids were extracted with 1.5 ml of 9:1 (v/v) toluene/ethanol to which had been added 25 to 100 mcg each of unlabelled estradiol, estriol, and estrone, and approximately 1000 dpm of [^14 C]-estradiol. The samples were vortexed, centrifuged at 500×g for 10 minutes, and the organic phase was transferred to a conical vial. Two additional extractions were performed on the residue in the same way. The pooled organic extracts were evaporated for subsequent thin-layer chromatography.
Ovarian proteins were precipitated by the addition of 5.0 ml of ethanol to the remaining aqueous phase. After an overnight incubation at 4° C., the samples were centrifuged at 1500×g for 10 minutes. The supernatant was discarded and the pellet was dissolved in 0.3N potassium hydroxide. Protein was determined according to the method of Bradford, Analytical Biochemistry, 72, 248 (1976).
The organic residue from each above extraction was redissolved in 9:1 (v/v) dichloromethane/methanol. The solution of each sample was applied to separate silica gel thin layer chromatography plates which contained a fluorescent indicator. The plates were developed in the first dimension with 160:38:1.5:0.5 (v/v/v/v) dichloromethane/ethyl acetate/methanol/acetic acid to within 3 cm of the top of the plate. After air-drying, the plate was developed in the second dimension with 180:19:1 (v/v/v) dichloromethane/methanol/ammonium hydroxide. The plate was air-dried and viewed under 254 nm UV light.
The visible spots were marked and the plates were sprayed with primulin (0.001% in 4:1 v/v acetone/water) according to the method of Wright, J. Chromatography, 59, 220 (1971) which allowed for the identification of additional steroids under 365 nm UV light. The spots were scraped from the plate using a glass wool plugged Pasteur pipet attached to a vacuum line. The steroids were eluted directly into scintillation vials by the addition of 0.2 ml of dichloromethane followed by two washes each of 2.0 ml of methanol. The organic solvent was evaporated and 10.0 ml of scintillation fluid (Beckman Ready Solv-NA) was added to the vials. Samples were analyzed by liquid scintillation spectrometry. Corrections were made based on the recoveries of the [^14 C]-steroid. Steroid concentrations are expressed as femtomoles per milligram protein.

[3] = system: DMBA-induced mammary tumors; assay: DMBA-induced mammary tumor inhibition; type: in vivo, rat (female Sprague-Dawley); settings: Test I, 20 mg/kg, once daily by gavage in corn oil
Protocol: Mammary tumors were produced in female Sprague-Dawley rats which were 50-60 days old by the gavage administration of 20 mg of 7,12-dimethylbenz[α]anthracene (DMBA). About six weeks after DMBA administration, the mammary glands were palpated at weekly intervals for the appearance of tumors. Whenever one or more tumors appeared and were measurable in an animal, that animal was selected for experimentation. […] Each control and test group contained 8 animals. The test compound was administered in corn oil and administered once daily by gavage.
Every experiment included a group of control rats having tumors that were given corn oil vehicle by gavage. […] The area of each tumor was calculated by multiplying the shortest and longest diameters of the tumor. The treatment and measurement of animals continued for five weeks at which time the final areas of the tumors were determined. The change in the mean tumor area was determined, and the means change was analyzed for its significance using Dunnett's t-test.

[4] = system: aromatization; assay: Estrogen synthesis inhibition in rats: uterine weight; type: in vivo, rat (immature female Wistar); settings: 7 days, testosterone propionate treated
Protocol: as §1
After two hours, the animals were killed by decapitation. Uteri were isolated, trimmed of extraneous connective tissue, and weighed. […] In the control animals treated with testosterone propionate, estrogens produced by aromatization stimulated the uterus resulting in an increase in weight.

[5] = system: breast cancer; settings: Cancer Research, Vol. 42, Suppl. 8:3261s (1982); cited from earlier work
[6] = rat ovarian microsomes, substrate (androstenedione) 0.1 μM, read-out: EC50 (concentration required to achieve 50% inhibition of aromatase activity)
[7] = Test I, 30 ppm in feed (approx. 3 mg/kg/day)
[8] = Test I, 300 ppm in feed (approx. 30 mg/kg/day)
[9] = Test II, 200 ppm in feed (approx. 20 mg/kg/day)

Work on N#CC(Cc1c[nH]cn1)(c1ccccc1)c1ccccc1 [α,α-diphenylimidazole-4(5)-propionitrile, maleic acid salt] yielded an EC50 [1, 6] of 0.165 µM.

N#CC(Cc1c[nH]cn1)(c1ccccc1)c1ccc(Cl)cc1 (stereo not drawn) [α-(4-chlorophenyl)-α-phenyl-imidazole-4(5)-propionitrile, maleic acid salt] gave an EC50 [1] of 0.072 µM.

Work on N#CC(Cc1c[nH]cn1)(c1ccccc1)c1cccnc1 (stereo not drawn) [α-[1-imidazol-4(5)-ylmethyl]-α-phenyl-3-pyridineacetonitrile dihydrochloride] yielded an EC50 [1, 6] of 0.56 µM.

For COc1ccc(C(C#N)(Cc2c[nH]cn2)c2ccccc2)cc1 (stereo not drawn) [α-(4-methoxyphenyl)-α-phenyl-imidazole-4(5)-propionitrile, maleic acid salt], the EC50 [1, 6] was 0.18 µM.

With N#CC(Cc1c[nH]cn1)(c1ccc(Cl)cc1)c1ccc(Cl)cc1 [α,α-bis(4-chlorophenyl)-imidazole-4(5)-propionitrile, maleic acid salt] the “Mean Steroid Concentration, estradiol” value [2, 7] was 1.36 femtomoles per milligram of protein, the “Mean Steroid Concentration, estriol” value [2, 7] was 0.72 femtomoles per milligram of protein and the “Mean Steroid Concentration, estrone” value [2, 7] was 0.11 femtomoles per milligram of protein. The “Mean Steroid Concentration, estradiol” value [2, 8] was 1.06 femtomoles per milligram of protein, the “Mean Steroid Concentration, estriol” value [2, 8] was 0.23 femtomoles per milligram of protein and the “Mean Steroid Concentration, estrone” value ([2]; Test I, 300 ppm in feed (approx. 30 mg/kg/day), + p < 0.05 vs testosterone-treated control) was 0.00 femtomoles per milligram of protein. The EC50 [1, 6] was 0.062 µM, the “Mean Tumor Area, Finish” value ([3]; 5 weeks, control 78.3 to 980.8, + p < 0.05 vs control) was 389.7 mm^2 and the “Mean Tumor Area, Start” value ([3]; start of test (baseline)) was 67.0 mm^2. The “Mean Uterine Weight” value ([4]; Test I, 30 ppm in feed (approx. 3 mg/kg/day), 4 animals) was 166.0 mg and the “Mean Uterine Weight” value ([4]; Test I, 300 ppm in feed (approx. 30 mg/kg/day), 5 animals, + p < 0.05 vs testosterone-treated control) was 141.6 mg.

With c1ccc(C(Cc2c[nH]cn2)c2ccccc2)cc1 [4(5)-(2,2-diphenylethyl)imidazole, 4(5)-(2,2-Diphenylethyl)imidazole] the EC50 [1] was 0.094 µM.

For C[C@]12C=CC(=O)C=C1CC[C@@H]1[C@@H]2CC[C@]2(C)OC(=O)CC[C@@H]12 [testolactone], the “effect in treatment of breast cancer” value [5] is given as “beneficial effect”.

NC(=O)C(Cc1c[nH]cn1)(c1ccccc1)c1ccccc1 [α,α-Diphenylimidazole-4-propionamide hydrochloride] gave an EC50 [1, 6] of 0.118 µM.

In the case of N#CC(Cc1c[nH]cn1)(c1ccccc1)c1ccc(C(F)(F)F)cc1 (stereo not drawn) [α-phenyl-α-(4-trifluoromethylphenyl)-1H--imidazole-4(5)-propionitrile], the “Mean Steroid Concentration, estradiol” value [2, 9] is reported as 1.01 femtomoles per milligram of protein, the “Mean Steroid Concentration, estriol” value [2, 9] is reported as 0.31 femtomoles per milligram of protein and the “Mean Steroid Concentration, estrone” value [2, 9] is reported as 0.00 femtomoles per milligram of protein. The EC50 [1, 6] was 0.073 µM and the “Mean Uterine Weight” value ([4]; Test II, 200 ppm in feed (approx. 20 mg/kg/day), 5 animals, + p < 0.05 vs testosterone-treated control) was 142.2 mg.

With N#CC(Cc1c[nH]cn1)(c1ccccc1)c1cccc(Cl)c1 (stereo not drawn) [α-(3-chlorophenyl)-α-phenyl-imidazole-4(5)-propionitrile hydrochloride] the EC50 [1, 6] was 0.078 µM.

NC(=O)C(Cc1c[nH]cn1)(c1ccc(Cl)cc1)c1ccc(Cl)cc1 [α,α-Bis(4-chlorophenyl)-1H-imidazole-4(5)-propionamide hydrochloride] gave an EC50 [1, 6] of less than 0.05 µM.

For CCC1(c2ccc(N)cc2)CCC(=O)NC1=O (centres unmarked) [aminoglutethimide], the “effect in treatment of breast cancer” value [5] is listed as “beneficial effect”.
